Measurements from the supplement of paper PMC10307832.

Key:
Test in all cases: relative viability (nuclei count vs DMSO), 5 days (fraction); higher = more cells survive
[1] = compound: Cc1ccc(C(=O)Nc2cccc(C(F)(F)F)c2)cc1Nc1cncc(C(N)=O)c1 [ALW-II-49-7] + CC1(C)CCC(c2ccc(Cl)cc2)=C(CN2CCN(c3ccc(C(=O)NS(=O)(=O)c4ccc(N[C@H](CCN5CCOCC5)CSc5ccccc5)c(S(=O)(=O)C(F)(F)F)c4)cc3)CC2)C1 [Navitoclax] (partner 0.5 µM)
In short: (§1)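 Cells from lung cancer lines were seeded into 1536-well plates and, one day later, dosed by pin tool. Treatments were either a single drug or a fixed dose of an anchor drug with five library-drug doses (not always all listed) in √10 steps. After 5 days, nuclei were stained in a one-step fixation (final 0.05% Triton X-100, 1% formaldehyde, 1 ug/ml Hoechst) and counted on 4× images, and relative viability is the treated-to-vehicle nuclei ratio, as the median of duplicate plates.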

[2] = compound: Cc1ccc(C(=O)Nc2cccc(C(F)(F)F)c2)cc1Nc1cncc(C(N)=O)c1 [ALW-II-49-7] + Cc1nc(NC(=O)N2CCC[C@H]2C(N)=O)sc1-c1ccnc(C(C)(C)C(F)(F)F)c1 [Alpelisib] (partner 2 µM)
In short: as §1

[3] = compound: Cc1nc(Nc2ncc(C(=O)Nc3c(C)cccc3Cl)s2)cc(N2CCN(CCO)CC2)n1 [Dasatinib] + CCNC(=O)c1noc(-c2cc(C(C)C)c(O)cc2O)c1-c1ccc(CN2CCOCC2)cc1 [Luminespib] (partner 0.01 µM)
In short: as §1

[4] = compound: Cc1nc(Nc2ncc(C(=O)Nc3c(C)cccc3Cl)s2)cc(N2CCN(CCO)CC2)n1 [Dasatinib] + O=C(CCCCCCC(=O)Nc1ccccc1)NO [Vorinostat] (partner 1 µM)
In short: as §1

Row | Cell Line | relative viability ([1]; first compound 0.08 µM) | relative viability ([1]; first compound 0.253 µM) | relative viability ([1]; first compound 0.8 µM) | relative viability ([1]; first compound 2.53 µM) | relative viability ([1]; first compound 8 µM) | relative viability ([2]; first compound 0.08 µM) | relative viability ([2]; first compound 0.253 µM) | relative viability ([2]; first compound 0.8 µM) | relative viability ([2]; first compound 2.53 µM) | relative viability ([2]; first compound 8 µM) | relative viability ([3]; first compound 0.005 µM) | relative viability ([3]; first compound 0.01581 µM) | relative viability ([3]; first compound 0.05 µM) | relative viability ([3]; first compound 0.1581 µM) | relative viability ([3]; first compound 0.5 µM) | relative viability ([4]; first compound 0.005 µM) | relative viability ([4]; first compound 0.01581 µM) | relative viability ([4]; first compound 0.05 µM) | relative viability ([4]; first compound 0.1581 µM) | relative viability ([4]; first compound 0.5 µM)
1 | PC-14 | 1.04 | 0.92 | 0.923 | 0.911 | 0.86 | 0.833 | 0.541 | 0.838 | 0.911 | 0.828 | 0.237 | 0.113 | 0.152 | 0.158 | 0.105 | 0.653 | 0.699 | 0.562 | 0.318 | 0.0563
2 | NCI-H1915 | 0.771 | 0.823 | 0.733 | 0.764 | 0.705 | 1.1 | 1.13 | 1.08 | 0.978 | 0.731 | 0.818 | 0.601 | 0.673 | 0.208 | 0.149 | 0.539 | 0.483 | 0.446 | 0.374 | 0.119
3 | SK-MES-1 | 1.03 | 1.34 | 1.15 | 0.961 | 0.647 | 0.852 | 0.802 | 0.891 | 0.779 | 0.753 | 0.844 | 0.656 | 0.353 | 0.128 | 0.154 | 1.19 | 0.961 | 0.977 | 0.503 | 0.206
4 | NCI-H1944 | 1.06 | 1.14 | 0.991 | 1.11 | 1.07 | 0.817 | 0.836 | 0.807 | 0.916 | 0.941 | 0.73 | 0.625 | 0.609 | 0.448 | 0.129 | 0.573 | 0.527 | 0.452 | 0.196 | 0.169
